Measured values from US8703698B2, “Compositions and methods for treating atherosclerosis” (The University of Chicago, priority 2003, dated 2014).

T1: acyl CoA:cholesterol acyl transferase (Mus musculus, UniProt Q61263)
T1 construct: The relative activity of acyl CoA:cholesterol acyl transferase was determined in cholesterol-laden cells; host or cells: J774 mouse macrophages, cholesterol-loaded
T1 sequence (Q61263 1-540): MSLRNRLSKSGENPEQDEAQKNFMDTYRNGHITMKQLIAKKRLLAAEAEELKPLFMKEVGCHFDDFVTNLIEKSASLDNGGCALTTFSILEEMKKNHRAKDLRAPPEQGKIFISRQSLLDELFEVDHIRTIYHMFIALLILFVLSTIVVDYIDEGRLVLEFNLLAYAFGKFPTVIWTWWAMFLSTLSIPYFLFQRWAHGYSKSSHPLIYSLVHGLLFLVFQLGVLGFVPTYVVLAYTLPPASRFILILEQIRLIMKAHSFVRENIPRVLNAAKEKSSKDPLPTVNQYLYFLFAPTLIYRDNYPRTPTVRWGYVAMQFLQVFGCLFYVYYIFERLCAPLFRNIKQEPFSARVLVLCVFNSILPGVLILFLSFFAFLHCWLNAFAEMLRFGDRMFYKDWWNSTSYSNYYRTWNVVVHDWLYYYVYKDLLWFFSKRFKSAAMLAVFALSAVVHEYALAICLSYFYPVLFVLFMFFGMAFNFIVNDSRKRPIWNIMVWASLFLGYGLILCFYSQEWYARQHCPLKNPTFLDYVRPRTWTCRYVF

B1: KEANWKNSDKYFHARGNYDAAQRGPGGVWAAEKISDGREAFQEFFGRGHEDTIADQEAN RHGRSGKDPNYYRPPGLPDKY (protein)
chain: KEANWKNSDKYFHARGNYDAAQRGPGGVWAAEKISDGREAFQEFFGRGHEDTIADQEANRHGRSGKDPNYYRPPGLPDKY
notes: 80-mer cyanogen bromide fragment of murine SAA2.1, residues 24-103

Legend:
[1] = test system: [3H]-cholesterol-loaded J774 macrophages; assay: In vivo cholesterol efflux to plasma in mice injected with [3H]-cholesterol-loaded J774 macrophages; conditions: for 3H-cholesterol export into the plasma, dose response (FIGS. 17 and 18): liposome formulated, intravenous, 2, 4, 8, 16 or 32 μg/100 μl per mouse, 6 to 48 hours; for radiolabeled cholesterol exported in the plasma (FIG. 15): non-liposome formulated, in 100 μl PBS, intravenous, 15 μg/mouse peptide or 75 μg/mouse full length protein
Experimental: In these experiments, in vivo cholesterol export was determined in mice injected with J774 macrophages cholesterol-loaded with RBC membranes and [^3H]-cholesterol. Two hundred thousand macrophages in 100:1 PBS were injected into each mouse through the tail vein. At various time points thereafter, approximately 25:1 of blood were collected from the tail vein of each animal into heparinized capillary tubes. The tubes were then centrifuged for 5 minutes in an Adams Autocrit Centrifuge to separate red blood cells from plasma. Cholesterol efflux was determined by measuring the appearance of [^3H]-cholesterol in plasma by scintillation spectrometry. To study whether export of cholesterol from J774 cells to plasma was influenced by non-liposome formulated D-27mer peptide (SEQ ID NO:10), 24 hours after injection of cholesterol-loaded J774 macrophages into mice, the same animals received, by intravenous injection, 30 μg, 60 μg, 150 μg, 225 μg, 300 μg or 600 μg of D-27mer. All these amounts of D-peptides were dissolved in 100:l of phosphate buffered saline and injected through the tail vein of each animal.
Additional in vivo studies have also been conducted wherein mice were first injected intravenously with [^3H]cholesterol-laden macrophages and then injected 24 hours later with liposomes containing 0.5 μM of synthetic peptides corresponding to amino acid residues 1-20, 21-50, 51-80 or 74-103 of murine SAA2.1. Results from this study are depicted in FIG. 1. At time points indicated in the graph of FIG. 1, approximately 25 μl of blood were collected from the tail vein of each animal. The blood samples were centrifuged to separate the red blood cells from the plasma and the [^3H]-cholesterol in plasma was determined by scintillation counting. Results are mean±SEM of four determinations.
To determine cholesterol export in vivo, J774 macrophages were cholesterol-loaded with red blood cell membranes and [^3H]-cholesterol as described above. Cells were washed four times with PBS/BSA and then detached from the culture dishes. Five million cells in 200 μl DMEM were injected into control mice or inflamed mice through the tail vein. At various time points, approximately 25 μl of blood were collected from the tail vein of each animal into heparinized capillary tubes and then centrifuged for 5 minutes in an Adams Autocrit Centrifuge to separate red blood cells from plasma. Cholesterol efflux was determined by measuring the appearance of [^3H]-cholesterol in plasma by scintillation spectrometry.
J774 cells cultured in 6-well plates were enriched with cholesterol by incubating with red blood cell (RBC) membrane fragments (175:g as cholesterol) that had been previously labeled with 0.5:Ci/ml [^3H]-cholesterol at 37° C. for 24 hours in 0.2% bovine serum albumin (BSA). After loading with the labelled RBC membrane for 6 hours, cells were then washed with phosphate-buffered saline/BSA (PBS/BSA) three times followed by an 18 hour equilibration period during which monolayers were exposed to DMEM/BSA. To determine cholesterol export in vivo, J774 macrophages were cholesterol-loaded with RBC membranes and [^3H]-cholesterol as described previously above. Cells were washed four times with PBS/BSA and then detached from the culture dishes. Two hundred thousand cells in 100:l PBS were injected into mice through the tail vein. At various time points thereafter, approximately 25:l of blood were collected from the tail vein of each animal into heparinized capillary tubes. These tubes were then centrifuged for 5 minutes in an Adams Autocrit Centrifuge to separate red blood cells from plasma. Cholesterol efflux was determined by measuring the appearance of [^3H]-cholesterol in plasma by scintillation spectrometry. […]

[2] = test system: NR8383 cells; assay: Cholesterol export from rat NR8383 macrophages; type: cell-based; conditions: peptide/lipid mixture by microfluidizer
Experimental: In these experiments, mouse J774 cells, human THP-1 cells and rat NR8383 cells were loaded with red blood cell membranes containing ^3H-cholesterol in accordance with procedures outlined in Example 4. The peptides were prepared as lipid mixtures using a microfluidizer procedure. Briefly, 3 mg of the 20-mer synthetic peptide (SEQ ID NO:30) or the 19-mer synthetic peptide (SEQ ID NO:12) was mixed with 5 ml cyclohexane and sonicated (output power of 14 watts) for 20-seconds followed by a 10-second interval. Separately, 2-oleyl-1-palmitoyl-sn-glycero-3-phosphocholine (Sigma-Aldrich P3017; 67.8 mg) and cholesterol (9.66 mg) were dissolved in 2 ml of chloroform, vortexed and transferred to a 500 ml round bottom flask. The two mixtures (i.e. cyclohexane/peptide and phosphatidylcholine/cholesterol solutions) were then combined. The combined solution was dried using nitrogen gas while swirling the flask, resulting in a thin layer of lipid at the bottom half of the flask. In order to ensure that the thin layer of lipid residue was completely dry, nitrogen gas was streamed over the lipid layer for an additional 10 minutes. […] Efficacy of the peptides was determined as the amount ^3H-cholesterol exported into the media after 24 hours. […]

[3] = test system: J774 macrophages; assay: [3H]cholesterol efflux from cholesterol-loaded J774 macrophages in tissue culture; type: cell-based, mouse; conditions: for 3H-cholesterol exported into the media after 24 hours (FIG. 19): peptide/lipid mixture by microfluidizer
[4] = test system: THP-1 cells; assay: Cholesterol efflux from cholesterol-laden human THP-1 cells; type: cell-based; conditions: for 3H-cholesterol exported into the media after 24 hours (FIG. 19): peptide/lipid mixture by microfluidizer, human THP-1 cells
[5] = test system: hepatic, macrophage, and pancreatic cholesterol esterase; conditions: Lindhorst 1997; Ely 2001; Tam 2002; cited from earlier work
[6] = biological target: T1, acyl CoA:cholesterol acyl transferase; conditions: intact murine macrophages and post-nuclear homogenates; Ely et al. 2001; cited from earlier work
[7] = biological target: macrophage cholesterol ester hydrolase (murine)
[8] = biological target: macrophage acyl CoA:cholesterol acyl transferase (murine)

Molecule | 3H-cholesterol export into the plasma, dose response (FIGS. 17 and 18) [1] | radiolabeled cholesterol exported in the plasma (FIG. 15) [1] | 3H-cholesterol exported into the media after 24 hours (FIG. 19) [2] | 3H-cholesterol exported into the media after 24 hours (FIG. 19) ([3]; mouse J774 cells) | 3H-cholesterol exported into the media after 24 hours (FIG. 19) [4] | further results
ADQAANEWGRSGKDPNHFR [SEQ ID NO:12, consensus 19-mer, residues 78-96 of human SAA1.1] | increased efficacy as the dose increased | no effect on cholesterol efflux | equally effective in inducing cholesterol export | equally effective in inducing cholesterol export | equally effective in inducing cholesterol export | cholesterol export enhancing activity, time course (FIG. 9) ([3]; liposomal formulations, mouse J774 cells): greatest cholesterol export enhancing activity; increase of cholesterol efflux with dose compared to mouse peptide SEQ ID NO:4 (FIGS. 5A and 5B) ([3]; liposomes, 0.05 to 5.0 μM, macrophages): at least as effective if not more effective; cholesterol efflux, time course at various concentrations (FIG. 6) ([4]; liposomal formulations, 0.05 to 5.0 μM): continued to increase over a time period from 0 to 24 hours
RSFFSFLGEAFDGARDMWRA [SEQ ID NO:30, 20-mer, residues 1-20 of human SAA1.1 or SAA2.1] | increased efficacy as the dose increased | no effect on cholesterol efflux | equally effective in inducing cholesterol export | equally effective in inducing cholesterol export | equally effective in inducing cholesterol export | 
B1 |  |  |  |  |  | cholesterol esterase activities in vitro [5]: effect was shown to reside; macrophage ACAT activity [6]: no inhibitory effect on ACAT activity
DTIADQEANRHGRSGKDPNYYRPPGLPDKY [synthetic peptide corresponding to amino acid residues 74-103 of murine SAA2.1] |  |  |  |  |  | rate of hydrolysis of [14C]-labeled cholesteryl oleate in J774 cells, re-esterification blocked with Sandoz 58-035 (fold increase) [7]: 3
GFFSFVHEAFQGAGDMWRAY [synthetic peptide corresponding to amino acid residues 1-20 of murine SAA2.1] |  |  |  |  |  | acyl CoA:cholesterol acyl transferase activity (incorporation of [14C]oleate into cholesteryl ester), cholesterol-laden murine cells, liposomes with 0.5 µM peptide, 6 hour incubation (fold decrease) [8]: 2
